Drawing on patent US11723908B2, “Quinazoline derivatives as antitumor agents” (SUZHOU ZANRONG PHARMA LIMITED, priority 2018, dated 2023), this text covers IC50 for 23 compounds.

pIC50: −log10 of the molar value.

HER2, sequence (P04626 23-1255): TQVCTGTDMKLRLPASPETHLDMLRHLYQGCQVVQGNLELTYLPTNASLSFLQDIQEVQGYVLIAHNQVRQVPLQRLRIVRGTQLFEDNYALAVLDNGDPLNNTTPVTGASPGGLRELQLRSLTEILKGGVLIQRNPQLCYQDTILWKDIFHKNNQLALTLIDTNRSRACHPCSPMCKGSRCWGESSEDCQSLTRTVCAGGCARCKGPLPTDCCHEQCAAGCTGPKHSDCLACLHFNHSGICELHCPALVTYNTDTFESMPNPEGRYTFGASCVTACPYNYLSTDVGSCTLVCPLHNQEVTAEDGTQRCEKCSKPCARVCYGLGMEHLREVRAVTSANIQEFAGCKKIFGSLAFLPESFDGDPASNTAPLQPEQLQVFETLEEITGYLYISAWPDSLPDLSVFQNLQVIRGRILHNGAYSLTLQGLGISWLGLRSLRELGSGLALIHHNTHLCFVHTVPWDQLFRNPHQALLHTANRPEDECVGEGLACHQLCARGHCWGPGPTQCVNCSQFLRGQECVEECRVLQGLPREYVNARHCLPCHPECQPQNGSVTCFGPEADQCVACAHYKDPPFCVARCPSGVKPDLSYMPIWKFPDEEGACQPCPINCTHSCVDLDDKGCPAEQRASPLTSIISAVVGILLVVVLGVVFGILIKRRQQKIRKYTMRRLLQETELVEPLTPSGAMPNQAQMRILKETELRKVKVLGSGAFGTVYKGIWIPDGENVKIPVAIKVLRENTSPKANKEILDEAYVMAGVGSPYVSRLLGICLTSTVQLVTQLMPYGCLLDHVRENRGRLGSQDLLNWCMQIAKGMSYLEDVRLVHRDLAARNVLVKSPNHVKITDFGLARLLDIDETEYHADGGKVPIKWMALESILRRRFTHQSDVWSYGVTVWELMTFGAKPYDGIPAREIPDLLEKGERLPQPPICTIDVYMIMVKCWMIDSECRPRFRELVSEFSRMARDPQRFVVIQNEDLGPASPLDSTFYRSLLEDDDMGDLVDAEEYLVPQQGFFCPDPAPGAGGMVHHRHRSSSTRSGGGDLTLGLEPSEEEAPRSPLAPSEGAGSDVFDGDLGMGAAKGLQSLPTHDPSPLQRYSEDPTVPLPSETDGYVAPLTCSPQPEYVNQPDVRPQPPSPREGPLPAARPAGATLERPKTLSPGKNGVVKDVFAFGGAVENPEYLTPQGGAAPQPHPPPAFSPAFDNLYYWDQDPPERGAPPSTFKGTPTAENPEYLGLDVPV

This experiment has as its target HER2 (Homo sapiens (Human), UniProt P04626). The experiment in a line: BT474 cellular assay (HER2 inhibition), phospho-HER2 ELISA. The class given is cell-based. Conditions: inhibition of phosphor HER2, BT474 cells, 2 hours compound incubation. The method, then: Assay a) BT474 Cellular Assay (HER2 Inhibition) Inhibition of phosphor HER2 was determined by enzyme-linked immunosorbent assay (ELISA) in BT474 cells. BT474 cell line was purchased from [NT] number HTB-20). Human Phospho-ErbB2 ELISA kit was purchased from R&D systems (catalog number DYC1768). Day 1: When the cells reach 70-90% confluence, cells were trypsinized and re-suspended. 5000 cells per well were seeded to a 384-well plate. The plate was incubated at 37° C. with 5% CO2 for 24 hours. ELISA plate was coated with 2 μg/ml capture antibody, which was incubated at 4° C. overnight. Day 2: 25 nl compounds was dosed by Echo from source plate and the 384-well plate was incubated at 37° C. for 2 hours. 30 μl lysis buffer was added to each well and the 384-well plate was shaken softly at 4° C. for 30 minutes. The ELISA plate was washed, blocked and incubated at room temperature for 1-2 hours. The blocked ELISA plate was washed and 20 μl cell lysate was transferred from the 384-well plate to the ELISA plate, which was incubated overnight at 4° C. Day 3: The ELISA plate was washed 3 times. 25 μl/well detection antibody was added (diluted 1 by 2000 in 1% BSA in PBS). After 2 hours of incubation with detection antibody, the ELISA plate was washed 3 times, 25 μl/well TMB substrate was added and incubated for 10-15 minutes before stop solution was added. Absorbance at 450 nm and 570 nm was read within 30 minutes after adding the stop solution. […] The IC50 results are provided in Table 1 for some exemplary compounds.
In general terms: ELISA stands for enzyme-linked immunosorbent assay.
Consider `COc1ccc2ncnc(Nc3ccc(Oc4cc5ncnn5cn4)c(C)c3)c2c1N1CC[C@@H](N(C)C)C1` [Example 2, (R)—N-(4-([1,2,4]-triazolo[1,5-c]pyrimidin-7-yloxy)-3-methylphenyl)-5-(3-(dimethylamino)pyrrolidin-1-yl)-6-methoxyquinazolin-4-amine], for which the pIC50 was 7.57. For `COc1ccc2ncnc(Nc3ccc(Oc4cc5ncnn5cn4)c(C)c3)c2c1OC1CCN(C)CC1` [Example 5, N-(4-([1,2,4]triazolo[1,5-c]pyrimidin-7-yloxy)-3-methylphenyl)-6-methoxy-5-((1-methylpiperidin-4-yl)oxy)quinazolin-4-amine], the pIC50 was 7.09. Compared with the last compound, the pIC50 is 0.48 log units lower. `Cc1cc(Nc2ncnc3ccc(OC(F)F)c(O[C@@H]4CCN(C)CC4(F)F)c23)ccc1Oc1cc2ncnn2cn1` [Example 17, (R)—N-(4-([1,2,4]triazolo[1,5-c]pyrimidin-7-yloxy)-3-methylphenyl)-5-((3,3-difluoro-1-methylpiperidin-4-yl)oxy)-6-(difluoromethoxy)quinazolin-4-amine] had a pIC50 of 7.46. This pIC50 lies 0.37 log units higher than the previous one.

The compound `Cc1cc(Nc2ncnc3ccc(OC(F)F)c(O[C@H]4CCN(C)CC4(F)F)c23)ccc1Oc1cc2ncnn2cn1` [Example 18, (S)—N-(4-([1,2,4]triazolo[1,5-c]pyrimidin-7-yloxy)-3-methylphenyl)-5-((3,3-difluoro-1-methylpiperidin-4-yl)oxy)-6-(difluoromethoxy)quinazolin-4-amine] showed a pIC50 of 7.32. This pIC50 and that of the compound before are within 0.2 log units of each other. The compound `Cc1cc(Nc2ncnc3ccc(O[C@H]4CCOC4)c(O[C@@H]4CCN(C)CC4(F)F)c23)ccc1Oc1cc2ncnn2cn1` [Example 21, N-(4-([1,2,4]triazolo[1,5-c]pyrimidin-7-yloxy)-3-methylphenyl)-5-(((R)-3,3-difluoro-1-methylpiperidin-4-yl)oxy)-6-(((S)-tetrahydrofuran-3-yl)oxy)quinazolin-4-amine] showed a pIC50 of 7.82. Compared with the last compound, the pIC50 is 0.50 log units higher. Take `Cc1cc(Nc2ncnc3ccc(O[C@H]4CCOC4)c(O[C@H]4CCN(C)CC4(F)F)c23)ccc1Oc1cc2ncnn2cn1` [Example 22, N-(4-([1,2,4]triazolo[1,5-c]pyrimidin-7-yloxy)-3-methylphenyl)-5-(((S)-3,3-difluoro-1-methylpiperidin-4-yl)oxy)-6-(((S)-tetrahydrofuran-3-yl)oxy)quinazolin-4-amine]: the pIC50 was 7.68. This pIC50 and that of the compound before are within 0.2 log units of each other.

`Cc1cc(Nc2ncnc3ccc(OC(C)C)c(O[C@@H]4CCN(C)CC4(F)F)c23)ccc1Oc1cc2ncnn2cn1` [Example 29, (R)—N-(4-([1,2,4]triazolo[1,5-c]pyrimidin-7-yloxy)-3-methylphenyl)-5-((3,3-difluoro-1-methylpiperidin-4-yl)oxy)-6-isopropoxyquinazolin-4-amine] had a pIC50 of 8.03. `Cc1cc(Nc2ncnc3ccc(OC(C)C)c(O[C@H]4CCN(C)CC4(F)F)c23)ccc1Oc1cc2ncnn2cn1` [Example 30, (S)—N-(4-([1,2,4]triazolo[1,5-c]pyrimidin-7-yloxy)-3-methylphenyl)-5-((3,3-difluoro-1-methylpiperidin-4-yl)oxy)-6-isopropoxyquinazolin-4-amine] showed a pIC50 of 7.70. This pIC50 is 0.33 log units lower than that of the compound before. As for `COc1ccc2ncnc(Nc3ccc(Oc4cc5ncnn5cn4)c(C)c3)c2c1N1CC2C1CCN2C1CC1` (centres unmarked) [Example 67, N-(4-([1,2,4]triazolo[1,5-c]pyrimidin-7-yloxy)-3-methylphenyl)-5-(2-cyclopropyl-2,6-diazabicyclo[3.2.0]heptan-6-yl)-6-methoxyquinazolin-4-amine], the pIC50 was 7.77. As to `COc1ccc2ncnc(Nc3ccc(Oc4cc5ncnn5cn4)c(C)c3)c2c1N1CC2C1CCN2CC(F)F` (centres unmarked) [Example 68, N-(4-([1,2,4]triazolo[1,5-c]pyrimidin-7-yloxy)-3-methylphenyl)-5-(2-(2,2-difluoroethyl)-2,6-diazabicyclo[3.2.0]heptan-6-yl)-6-methoxyquinazolin-4-amine], the pIC50 was 8.19. In turn, `Cc1cc(Nc2ncnc3ccc(OC(F)(F)F)c(O[C@@H]4CCN(C)CC4(F)F)c23)ccc1Oc1cc2ncnn2cn1` [Example 72, (R)—N-(4-([1,2,4]-triazolo[1,5-c]pyrimidin-7-yloxy)-3-methylphenyl)-5-((3,3-difluoro-1-methylpiperidin-4-yl)oxy)-6-(trifluoromethoxy)quinazolin-4-amine] gave a pIC50 of 7.29. Against the preceding compound, the pIC50 is 0.90 log units lower. The result for `COc1ccc2ncnc(Nc3ccc(Oc4cc5ncnn5cn4)c(C)c3)c2c1O[C@@H]1CN(C)CC1(F)F` [Example 74, (R)—N-(4-([1,2,4]triazolo[1,5-c]pyrimidin-7-yloxy)-3-methylphenyl)-5-((4,4-difluoro-1-methylpyrrolidin-3-yl)oxy)-6-methoxyquinazolin-4-amine] reads 8.00; that for `COc1ccc2ncnc(Nc3ccc(Oc4cc5ncnn5cn4)c(C)c3)c2c1O[C@H]1CN(C)CC1(F)F` [Example 75, (S)—N-(4-([1,2,4]triazolo[1,5-c]pyrimidin-7-yloxy)-3-methylphenyl)-5-((4,4-difluoro-1-methylpyrrolidin-3-yl)oxy)-6-methoxyquinazolin-4-amine], 7.89; that for `COc1ccc2ncnc(Nc3ccc(Oc4cc5ncnn5cn4)c(C)c3)c2c1OC1CCNCC1(F)F` (centres unmarked) [Example 76, N-(4-([1,2,4]triazolo[1,5-c]pyrimidin-7-yloxy)-3-methylphenyl)-5-((3,3-difluoropiperidin-4-yl)oxy)-6-methoxyquinazolin-4-amine], 7.96. The compound `[2H]C([2H])([2H])Oc1ccc2ncnc(Nc3ccc(Oc4cc5ncnn5cn4)c(C)c3)c2c1O[C@@H]1CCN(C([2H])([2H])[2H])CC1(F)F` [Example 77, (R)—N-(4-([1,2,4]triazolo[1,5-c]pyrimidin-7-yloxy)-3-methylphenyl)-5-((3,3-difluoro-1-(methyl-d3)piperidin-4-yl)oxy)-6-(methoxy-d3)quinazolin-4-amine] showed a pIC50 of 7.85.

As to `COc1ccc2ncnc(Nc3ccc(Oc4cc5ncnn5cn4)c(C)c3)c2c1O[C@@H]1CCN(C(C)C)CC1(F)F` [Example 78, (R)-N-(4-([1,2,4]triazolo[1,5-c]pyrimidin-7-yloxy)-3-methylphenyl)-5-((3,3-difluoro-1-isopropylpiperidin-4-yl)oxy)-6-methoxyquinazolin-4-amine], the negative logarithm of the IC50 (pIC50) is 7.96. `COc1ccc2ncnc(Nc3ccc(Oc4cc5ncnn5cn4)c(C)c3)c2c1O[C@@H]1CCN(C2CC2)CC1(F)F` [Example 79, (R)-N-(4-([1,2,4]triazolo[1,5-c]pyrimidin-7-yloxy)-3-methylphenyl)-5-((1-cyclopropyl-3,3-difluoropiperidin-4-yl)oxy)-6-methoxyquinazolin-4-amine] had a pIC50 of 8.01. This pIC50 and that of the compound before are within 0.2 log units of each other. Take `C=CC(=O)N1CC=C(c2ccc3ncnc(Nc4ccc(Oc5cc6ncnn6cn5)c(C)c4)c3c2N2CC(N(C)C)C2)CC1` [Example 80, 1-(4-(4-((4-([1,2,4]triazolo[1,5-c]pyrimidin-7-yloxy)-3-methylphenyl)amino)-5-(3-(dimethylamino)azetidin-1-yl)quinazolin-6-yl)-3,6-dihydropyridin-1(2H)-yl)prop-2-en-1-one]: the pIC50 is 6.41. This pIC50 lies 1.60 log units lower than the previous one. For `C=CC(=O)N1CC=C(c2ccc3ncnc(Nc4ccc(Oc5cc6ncnn6cn5)c(C)c4)c3c2O[C@@H]2CCN(C)CC2(F)F)CC1` [Example 81, (R)-1-(4-(4-((4-([1,2,4]triazolo[1,5-c]pyrimidin-7-yloxy)-3-methylphenyl)amino)-5-((3,3-difluoro-1-methylpiperidin-4-yl)oxy)quinazolin-6-yl)-3,6-dihydropyridin-1(2H)-yl)prop-2-en-1-one], the pIC50 was 6.65.

`C=CC(=O)N1CCC=C(c2ccc3ncnc(Nc4ccc(Oc5cc6ncnn6cn5)c(C)c4)c3c2N2CC(N(C)C)C2)C1` [Example 82, 1-(5-(4-((4-([1,2,4]triazolo[1,5-c]pyrimidin-7-yloxy)-3-methylphenyl)amino)-5-(3-(dimethylamino)azetidin-1-yl)quinazolin-6-yl)-3,6-dihydropyridin-1(2H)-yl)prop-2-en-1-one] gave a pIC50 of 6.75. The result for `C=CC(=O)N1CCC=C(c2cc(N3CC(N(C)C)C3)c3c(Nc4ccc(Oc5cc6ncnn6cn5)c(C)c4)ncnc3c2)C1` [Example 84, 1-(5-(4-((4-([1,2,4]triazolo[1,5-c]pyrimidin-7-yloxy)-3-methylphenyl)amino)-5-(3-(dimethylamino)azetidin-1-yl)quinazolin-7-yl)-3,6-dihydropyridin-1(2H)-yl)prop-2-en-1-one] reads 6.68. In turn, `COc1ccc2ncc(C#N)c(Nc3ccc(Oc4cc5ncnn5cn4)c(C)c3)c2c1O[C@@H]1CCN(C)CC1(F)F` [Example 86, (R)-4-((4-([1,2,4]triazolo[1,5-c]pyrimidin-7-yloxy)-3-methylphenyl)amino)-5-((3,3-difluoro-1-methylpiperidin-4-yl)oxy)-6-methoxyquinoline-3-carbonitrile] showed a pIC50 of 6.68. `Cc1cc(Nc2ncnc3ccc(NC(=O)/C=C/CN(C)C)c(O[C@@H]4CCN(C)CC4(F)F)c23)ccc1Oc1cc2ncnn2cn1` [Example 92, (R,E)-N-(4-((4-([1,2,4]triazolo[1,5-c]pyrimidin-7-yloxy)-3-methylphenyl)amino)-5-((3,3-difluoro-1-methylpiperidin-4-yl)oxy)quinazolin-6-yl)-4-(dimethylamino)but-2-enamide] showed a pIC50 of 6.57.

The pIC50 is −log10 of the IC50, conventionally taken in molar units. A lower pIC50 goes with a high IC50.
